These molecules were tested against T1, histamine H4 receptor (Homo sapiens, UniProt Q9H3N8) (assay: H4 binding ([3H]-Histamine competition binding on CHO cell membranes)). Conditions: [3H]-Histamine 3 nM, membranes of CHO cells expressing the histamine H4 receptor; Ki calculated from IC50 by Cheng-Prussoff.
T1 construct: expressed in transfected cells; host or cells: CHO cells (membranes)
T1 sequence (Q9H3N8 whole entry): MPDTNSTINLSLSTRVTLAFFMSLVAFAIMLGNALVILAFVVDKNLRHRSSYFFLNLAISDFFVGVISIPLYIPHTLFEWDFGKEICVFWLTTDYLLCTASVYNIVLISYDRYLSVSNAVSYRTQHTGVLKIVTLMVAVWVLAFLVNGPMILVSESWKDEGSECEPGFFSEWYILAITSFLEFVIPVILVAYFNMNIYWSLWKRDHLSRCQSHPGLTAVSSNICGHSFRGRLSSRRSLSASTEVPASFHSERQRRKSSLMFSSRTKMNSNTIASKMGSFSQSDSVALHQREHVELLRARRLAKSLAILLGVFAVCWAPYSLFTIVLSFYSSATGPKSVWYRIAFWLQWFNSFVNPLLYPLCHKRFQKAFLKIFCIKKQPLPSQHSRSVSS
Protocol: Cell pellets from CHO cells expressing the histamine H4 receptor were homogenised in ice-cold 50 mM Tris-HCl/0.5 mM CaCl2 buffer containing a protease inhibitor cocktail (Roche®, United Kingdom) using a ground glass homogeniser. Homogenates were centrifuged at 48000 g for 30 min at 4° C. The membrane pellet was resuspended in fresh buffer and the centrifugation step was repeated as described above. The membrane pellet was resuspended in 50 mM Tris-HCl in the same volume as the original cell pellet.
The reaction was terminated by rapid filtration through 0.5% polyethylenimine-soaked Unifilter GF/B plates (Packard) followed by three washes with 1 ml ice-cold 50 mM Tris-HCl. Filters were dried for 45 min at 45° C. and bound radiolabel was determined using scintillation counting techniques. Non-specific binding was defined with 5 μM clobenpropit.
`CN1C[C@@H]2CN(C(=O)c3nc4ccccc4[nH]3)C[C@@H]2C1` [Example 1, 2-{[(3aR,6aS)5-Methylhexahydropyrrolo[3,4-c]pyrrol-2(1H)-yl]carbonyl}-1H-benzimidazole] showed a Ki of 91 nM.
For `CN1C[C@@H]2CN(C(=O)c3nc4cc(F)ccc4[nH]3)C[C@@H]2C1` [Example 3, 5-Fluoro-2-{[(3aR,6aS)-5-methylhexahydropyrrolo[3,4-c]pyrrol-2(1H)-yl]carbonyl}-1H-benzimidazole], the Ki was 82 nM.
With `CN1C[C@@H]2CN(C(=O)c3cc4cc(Cl)ccc4[nH]3)C[C@@H]2C1` [Example 7, 5-Chloro-2-{[(3aR,6aS)-5-methylhexahydropyrrolo[3,4-c]pyrrol-2(1H)-yl]carbonyl}-1H-indole] the Ki was 16 nM.
With `CN1C[C@@H]2CN(C(=O)c3cc4cc(O)ccc4[nH]3)C[C@@H]2C1` [Example 15, 2-{[(3aR,6aS)-5-Methylhexahydropyrrolo[3,4-c]pyrrol-2(1H)-yl]carbonyl}-1H-indol-5-ol] the Ki was 28 nM.
Work on `CN1C[C@@H]2CN(C(=O)c3cc4cc(F)ccc4[nH]3)C[C@@H]2C1` [Example 16, 5-Fluoro-2-{[(3aR,6aS)-5-methylhexahydropyrrolo[3,4-c]pyrrol-2(1H)-yl]carbonyl}-1H-indole] yielded a Ki of 20 nM.
For `Cc1ccc2[nH]c(C(=O)N3C[C@H]4CN(C)C[C@H]4C3)cc2c1` [Example 17, 5-Methyl-2-{[(3aR,6aS)-5-methylhexahydropyrrolo[3,4-c]pyrrol-2(1H)-yl]carbonyl}-1H-indole], the Ki was 84 nM.
`CN1C[C@@H]2CN(C(=O)c3cc4cc(Br)ccc4[nH]3)C[C@@H]2C1` [Example 21, 5-Bromo-2-{[(3aR,6aS)-5-methylhexahydropyrrolo[3,4-c]pyrrol-2(1H)-yl]carbonyl}-1H-indole] was tested, and the Ki was 43 nM.
For `CN1C[C@@H]2CN(C(=O)c3cc4cccc(F)c4[nH]3)C[C@@H]2C1` [Example 22, 7-Fluoro-2-{[(3aR,6aS)-5-methylhexahydropyrrolo[3,4-c]pyrrol-2(1H)-yl]carbonyl}-1H-indole], the Ki was 20 nM.
Work on `CN1C[C@@H]2CN(C(=O)c3nc4ccc(F)c(F)c4[nH]3)C[C@@H]2C1` [Example 25, 6,7-Difluoro-2-{[(3aR,6aS)-5-methylhexahydropyrrolo[3,4-c]pyrrol-2(1H)-yl]carbonyl}-1H-benzimidazole] yielded a Ki of 67 nM.
`Cc1cccc2nc(C(=O)N3C[C@H]4CN(C)C[C@H]4C3)[nH]c12` [Example 26, 7-Methyl-2-{[(3aR,6aS)-5-methylhexahydropyrrolo[3,4-c]pyrrol-2(1H)-yl]carbonyl}-1H-benzimidazole] showed a Ki of 110 nM.
With `CN1C[C@@H]2CN(C(=O)c3nc4cc(F)c(F)cc4[nH]3)C[C@@H]2C1` [Example 27, 5,6-Difluoro-2-{[(3aR,6aS)-5-methylhexahydropyrrolo[3,4-c]pyrrol-2(1H)-yl]carbonyl}-1H-benzimidazole] the Ki was 117 nM.
For `Cc1c(F)ccc2nc(C(=O)N3C[C@H]4CN(C)C[C@H]4C3)[nH]c12` [Example 41, 5-fluoro-4-methyl-2-{[(3aR,6aS)-5-methylhexahydropyrrolo [3,4-c]pyrrol-2(1H)-yl]carbonyl}-1H-benzimidazole], the Ki was 53 nM.
With `Cc1c(Cl)ccc2[nH]c(C(=O)N3C[C@H]4CN(C)C[C@H]4C3)nc12` [Example 48, 5-Chloro-4-methyl-2-{[(3aR,6aS)-5-methylhexahydropyrrolo[3,4-c]pyrrol-2(1H)-yl]carbonyl}-1H-benzimidazole] the Ki was 91 nM.
In the case of `CN1C[C@@H]2CN(C(=O)c3nc4c(F)c(F)c(F)cc4[nH]3)C[C@@H]2C1` [Example 58, 4,5,6-Trifluoro-2-{[(3aR,6aS)-5-methylhexahydropyrrolo [3,4-c]pyrrol-2(1H)-yl]carbonyl}-1H-benzimidazole], the Ki is reported as 100 nM.
Molecule `CN1C[C@@H]2CN(C(=N)c3nc4cc(F)c(F)cc4[nH]3)C[C@@H]2C1` [Example 59, 1-(5,6-Difluoro-1H-benzimidazol-2-yl)-1-[(3aR,6aS)-5-methylhexahydropyrrolo[3,4-c]pyrrol-2(1H)-yl]methanimine] has a Ki of 7 nM.
Molecule `CN1C[C@@H]2CN(C(=N)c3nc4cc(F)ccc4[nH]3)C[C@@H]2C1` [Example 60, 1-(5-Fluoro-1H-benzimidazol-2-yl)-1-[(3aR,6aS)-5-methylhexahydropyrrolo[3,4-c]pyrrol-2(1H)-yl]methanimine] has a Ki of 6 nM.
With `CN1C[C@@H]2CN(C(=N)c3nc4c(F)c(F)ccc4[nH]3)C[C@@H]2C1` [Example 61, 1-(4,5-Difluoro-1H-benzimidazol-2-yl)-1-[(3aR, 6aS)-5-methylhexahydropyrrolo[3,4-c]pyrrol-2(1H)-yl]methanimine] the Ki was 24 nM.
In the case of `Cc1cccc2nc(C(=N)N3C[C@H]4CN(C)C[C@H]4C3)[nH]c12` [Example 62, 1-(4-Methyl-1H-benzimidazol-2-yl)-1-[(3aR, 6aS)-5-methylhexahydropyrrolo[3,4-c]pyrrol-2(1H)-yl]methanimine], the Ki is reported as 7 nM.
With `CN1C[C@@H]2CN(C(=N)c3nc4cc(F)cc(F)c4[nH]3)C[C@@H]2C1` [Example 63, 1-(4,6-Difluoro-1H-benzimidazol-2-yl)-1-[(3aR, 6aS)-5-methylhexahydropyrrolo[3,4-c]pyrrol-2(1H)-yl]methanimine] the Ki was 47 nM.
`Cc1c(F)ccc2nc(C(=N)N3C[C@H]4CN(C)C[C@H]4C3)[nH]c12` [Example 64, 1-(6-Fluoro-7-methyl-1H-benzimidazol-2-yl)-1-[(3aR, 6aS)-5-methylhexahydropyrrolo[3,4-c]pyrrol-2(1H)-yl]methanimine] gave a Ki of 4 nM.
`Cc1c(Cl)ccc2nc(C(=N)N3C[C@H]4CN(C)C[C@H]4C3)[nH]c12` [Example 65, 1-(6-Chloro-7-methyl-1H-benzimidazol-2-yl)-1-[(3aR, 6aS)-5-methylhexahydropyrrolo[3,4-c]pyrrol-2(1H)-yl]methanimine] was tested, and the Ki was 12 nM.
`CN1C[C@@H]2CN(C(=N)c3nc4cccc(F)c4[nH]3)C[C@@H]2C1` [Example 66, 1-(7-Fluoro-1H-benzimidazol-2-yl)-1-[(3aR, 6aS)-5-methylhexahydropyrrolo[3,4-c]pyrrol-2(1H)-yl]methanimine] was tested, and the Ki was 24 nM.
In the case of `CN1C[C@@H]2CN(C(=N)c3nc4c(F)c(F)c(F)cc4[nH]3)C[C@@H]2C1` [Example 67, 1-[(3aR, 6aS)-5-Methylhexahydropyrrolo[3,4-c]pyrrol-2(1H)-yl]-1-(4,5,6-trifluoro-1H-benzimidazol-2-yl)methanimine], the Ki is reported as 60 nM.
In the case of `CN1C[C@@H]2CN(C(=N)c3nc4cc(Cl)ccc4[nH]3)C[C@@H]2C1` [Example 68, 1-(5-Chloro-1H-benzimidazol-2-yl)-1-[(3aR, 6aS)-5-methylhexahydropyrrolo[3,4-c]pyrrol-2(1H)-yl]methanimine], the Ki is reported as 26 nM.

Source: US20060111416A1, “Octahydropyrrolo[3,4-C]pyrrole derivatives” (priority 2004, published 2006)
